Key:
Assay in all cases: relative viability (nuclei count vs DMSO), 5 days (fraction); higher = more cells survive
BI-D1870 + AZD7762 = compound: CC(C)CCN1c2nc(Nc3cc(F)c(O)c(F)c3)ncc2N(C)C(=O)C1C [BI-D1870] + NC(=O)Nc1cc(-c2cccc(F)c2)sc1C(=O)N[C@H]1CCCNC1 [AZD7762] (partner 0.2 µM)
Method in brief: (§1)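 After 5 days of treatment, lung cancer cells in 1536-well plates were fixed and stained in a single step (final 0.05% Triton X-100, 1% formaldehyde, 1 ug/ml Hoechst) and their nuclei counted on 4× images. Treatment had been applied by pin tool the day after seeding as one drug alone or as a fixed anchor-drug dose with five library-drug doses (not always all listed) in √10 steps. Relative viability is the nuclei count of treated wells divided by that of vehicle wells, and values are medians of duplicate plates.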

BI-D1870 + Pictilisib = compound: CC(C)CCN1c2nc(Nc3cc(F)c(O)c(F)c3)ncc2N(C)C(=O)C1C [BI-D1870] + CS(=O)(=O)N1CCN(Cc2cc3nc(-c4cccc5[nH]ncc45)nc(N4CCOCC4)c3s2)CC1 [Pictilisib] (partner 1 µM)
Method in brief: as §1

Zebularine + Phenformin = compound: O=c1ncccn1[C@@H]1O[C@H](CO)[C@@H](O)[C@H]1O [Zebularine] + N=C(N)NC(=N)NCCc1ccccc1 [Phenformin] (partner 250 µM)
Method in brief: as §1

BI-D1870 + Trametinib = compound: CC(C)CCN1c2nc(Nc3cc(F)c(O)c(F)c3)ncc2N(C)C(=O)C1C [BI-D1870] + CC(=O)Nc1cccc(-n2c(=O)n(C3CC3)c(=O)c3c(Nc4ccc(I)cc4F)n(C)c(=O)c(C)c32)c1 [Trametinib] (partner 0.02 µM)
Method in brief: as §1

| Cell Line | relative viability (BI-D1870 + AZD7762; first compound 0.04 µM) | relative viability (BI-D1870 + AZD7762; first compound 0.1265 µM) | relative viability (BI-D1870 + AZD7762; first compound 0.4 µM) | relative viability (BI-D1870 + AZD7762; first compound 1.265 µM) | relative viability (BI-D1870 + AZD7762; first compound 4 µM) | relative viability (BI-D1870 + Pictilisib; first compound 0.04 µM) | relative viability (BI-D1870 + Pictilisib; first compound 0.1265 µM) | relative viability (BI-D1870 + Pictilisib; first compound 0.4 µM) | relative viability (BI-D1870 + Pictilisib; first compound 1.265 µM) | relative viability (BI-D1870 + Pictilisib; first compound 4 µM) | relative viability (Zebularine + Phenformin; first compound 1 µM) | relative viability (Zebularine + Phenformin; first compound 3.162 µM) | relative viability (Zebularine + Phenformin; first compound 10 µM) | relative viability (Zebularine + Phenformin; first compound 31.62 µM) | relative viability (Zebularine + Phenformin; first compound 100 µM) | relative viability (BI-D1870 + Trametinib; first compound 0.04 µM) | relative viability (BI-D1870 + Trametinib; first compound 0.1265 µM) | relative viability (BI-D1870 + Trametinib; first compound 0.4 µM) | relative viability (BI-D1870 + Trametinib; first compound 1.265 µM) | relative viability (BI-D1870 + Trametinib; first compound 4 µM) |
| --- | --- | --- | --- | --- | --- | --- | --- | --- | --- | --- | --- | --- | --- | --- | --- | --- | --- | --- | --- | --- |
| NCI-H1975 | 0.791 | 0.611 | 0.721 | 0.732 | 0.653 | 0.297 | 0.276 | 0.288 | 0.299 | 0.208 | 0.416 | 0.417 | 0.229 | 0.221 | 0.148 | 0.373 | 0.285 | 0.339 | 0.365 | 0.289 |
| CAL-12T | 0.749 | 0.546 | 0.637 | 0.599 | 0.668 | 0.554 | 0.363 | 0.382 | 0.657 | 0.336 | 0.569 | 0.464 | 0.535 | 0.583 | 0.391 | 0.353 | 0.305 | 0.405 | 0.351 | 0.311 |
| NCI-H1623 | – | – | – | – | – | – | – | – | – | – | 0.624 | 0.531 | 0.479 | 0.535 | 0.437 | – | – | – | – | – |
| HCC-44 | 1.02 | 0.988 | 1 | 1.04 | 1.04 | 0.651 | 0.498 | 0.617 | 0.768 | 0.443 | 0.255 | 0.212 | 0.145 | 0.144 | 0.157 | 1.04 | 1.06 | 1.07 | 1.04 | 1.2 |
| EKVX | 0.632 | 0.72 | 0.61 | 0.742 | 0.701 | 0.488 | 0.388 | 0.412 | 0.453 | 0.403 | 0.238 | 0.248 | 0.218 | 0.238 | 0.251 | 0.336 | 0.281 | 0.339 | 0.401 | 0.445 |
| NCI-H1651 | 0.511 | 0.491 | 0.395 | 0.465 | 0.403 | 0.549 | 0.423 | 0.566 | 0.516 | 0.551 | 0.347 | 0.401 | 0.273 | 0.369 | 0.256 | 0.874 | 0.881 | 0.81 | 0.936 | 0.828 |
| NCI-H1944 | 0.624 | 0.433 | 0.514 | 0.685 | 0.546 | 0.395 | 0.294 | 0.332 | 0.377 | 0.345 | 0.226 | 0.188 | 0.174 | 0.19 | 0.146 | 0.443 | 0.362 | 0.382 | 0.423 | 0.393 |
| NCI-H1703 | 0.143 | – | 0.122 | 0.142 | 0.116 | 0.256 | 0.245 | 0.234 | 0.213 | 0.209 | – | – | – | – | – | – | – | – | – | – |
| Calu-6 | – | – | – | – | – | 1.03 | 0.82 | 0.868 | 0.704 | 0.367 | – | – | – | – | – | – | – | – | – | – |
| EBC-1 | – | – | – | – | – | 0.459 | 0.451 | 0.354 | 0.363 | 0.123 | – | – | – | – | – | – | – | – | – | – |
| SW 1573 | – | – | – | – | – | 0.6 | 0.414 | 0.47 | 0.402 | 0.368 | 0.379 | 0.404 | – | 0.406 | 0.227 | 0.595 | 0.528 | 0.552 | 0.497 | 0.318 |
| A-427 | 0.86 | 0.717 | 0.848 | 1.01 | 0.796 | 0.824 | 0.553 | 0.689 | 0.716 | 0.654 | 0.361 | 0.302 | 0.262 | 0.279 | 0.213 | 0.763 | 0.678 | 0.755 | 0.833 | 0.814 |
| NCI-H2347 | 0.811 | 0.768 | 0.798 | 0.933 | 0.822 | 0.797 | 0.466 | 0.662 | 0.649 | 0.44 | 0.583 | 0.38 | 0.297 | 0.233 | 0.293 | 0.302 | 0.26 | 0.273 | 0.296 | 0.322 |
| NCI-H1355 | 0.954 | 0.732 | 0.7 | 0.849 | 0.551 | 0.433 | 0.365 | 0.398 | 0.504 | 0.323 | 0.507 | 0.45 | 0.425 | 0.403 | 0.294 | 0.455 | 0.361 | 0.448 | 0.418 | 0.454 |
| NCI-H358 | 0.551 | 0.566 | 0.52 | 0.594 | 0.492 | 0.38 | 0.233 | 0.338 | 0.365 | 0.322 | 0.354 | 0.261 | 0.209 | 0.227 | 0.154 | 0.147 | 0.117 | 0.136 | 0.153 | 0.119 |
| PC-3 [JPC-3] | 0.851 | 0.75 | 0.837 | 0.693 | 0.449 | 0.768 | 0.71 | 0.699 | 0.793 | 0.645 | 0.461 | 0.486 | 0.437 | 0.46 | 0.396 | 0.751 | 0.701 | 0.632 | 0.762 | 0.576 |
| NCI-H2228 | – | – | – | – | – | 0.395 | 0.356 | 0.448 | 0.468 | 0.225 | 0.313 | 0.313 | 0.182 | 0.323 | 0.221 | 0.54 | 0.367 | 0.362 | 0.56 | 0.223 |
| HOP-62 | 0.969 | 0.898 | 0.798 | 0.834 | 0.651 | 0.606 | 0.745 | 0.726 | 0.554 | 0.669 | 0.827 | 0.653 | 0.286 | 0.282 | 0.266 | 0.429 | 0.332 | 0.331 | 0.367 | 0.299 |
| HARA | 0.442 | 0.307 | 0.263 | 0.318 | 0.297 | 0.597 | 0.314 | 0.458 | 0.518 | 0.366 | 0.506 | – | – | 0.436 | 0.272 | 0.613 | 0.548 | 0.702 | 0.876 | 1.04 |

From the supplement of paper PMC10307832
